This note sets out measurements from ChEMBL document CHEMBL5724914, “Linking interpersonal differences in gut microbiota composition and drug biotransformation activity” (2024).

The nature of data set [1]: The drug is tested on Z-030 corresponding to mouse gut metagenome with ENA study accession number: PRJEB37062 and ENA sample accession number: ERS12561829 for biotransformation under anaerobic condition. The drug concentrations were measured over 9 timepoints collected between 0 and 24 hours of incubation by liquid-chromatography-coupled mass spectrometry (LC–MS). The conditions noted are these: 2 µM.

The nature of data set [2]: The drug is tested on Z-027 corresponding to metagenome with ENA study accession number: PRJEB37062 and ENA sample accession number: ERS12561826 for biotransformation under anaerobic condition. The drug concentrations were measured over 9 timepoints collected between 0 and 24 hours of incubation by liquid-chromatography-coupled mass spectrometry (LC–MS). Conditions: 2 µM.

Data set [3] in a line: The drug is tested on Z-020 corresponding to rabbit gut metagenome with ENA study accession number: PRJEB37062 and ENA sample accession number: ERS12561819 for biotransformation under anaerobic condition. The drug concentrations were measured over 9 timepoints collected between 0 and 24 hours of incubation by liquid-chromatography-coupled mass spectrometry (LC–MS). Conditions: 2 µM.

Data set [4] in a line: The drug is tested on Z-019 corresponding to rat gut metagenome with ENA study accession number: PRJEB37062 and ENA sample accession number: ERS12561818 for biotransformation under anaerobic condition. The drug concentrations were measured over 9 timepoints collected between 0 and 24 hours of incubation by liquid-chromatography-coupled mass spectrometry (LC–MS). Conditions: 2 µM.

A short description of data set [5]: The drug is tested on Z-007 corresponding to rat gut metagenome with ENA study accession number: PRJEB37062 and ENA sample accession number: ERS12561807 for biotransformation under anaerobic condition. The drug concentrations were measured over 9 timepoints collected between 0 and 24 hours of incubation by liquid-chromatography-coupled mass spectrometry (LC–MS). Conditions: 2 µM.

Data set [6] in a line: The drug is tested on Z-005 corresponding to metagenome with ENA study accession number: PRJEB37062 and ENA sample accession number: ERS12561805 for biotransformation under anaerobic condition. The drug concentrations were measured over 9 timepoints collected between 0 and 24 hours of incubation by liquid-chromatography-coupled mass spectrometry (LC–MS). The conditions noted are these: 2 µM.

A short description of data set [7]: The drug is tested on Z-002 corresponding to rabbit gut metagenome with ENA study accession number: PRJEB37062 and ENA sample accession number: ERS12561802 for biotransformation under anaerobic condition. The drug concentrations were measured over 9 timepoints collected between 0 and 24 hours of incubation by liquid-chromatography-coupled mass spectrometry (LC–MS). The conditions noted are these: 2 µM.

Data set [8] can be described thus: The drug is tested on Z-001 corresponding to mouse gut metagenome with ENA study accession number: PRJEB37062 and ENA sample accession number: ERS12561801 for biotransformation under anaerobic condition. The drug concentrations were measured over 9 timepoints collected between 0 and 24 hours of incubation by liquid-chromatography-coupled mass spectrometry (LC–MS). Conditions: 2 µM.

A short description of data set [9]: The drug is tested on WLS-098 corresponding to human gut metagenome with ENA study accession number: PRJEB37062 and ENA sample accession number: ERS12561754 for biotransformation under anaerobic condition. The drug concentrations were measured over 9 timepoints collected between 0 and 24 hours of incubation by liquid-chromatography-coupled mass spectrometry (LC–MS). The conditions noted are these: 2 µM.

Data set [10] in a line: The drug is tested on WLS-073 corresponding to human gut metagenome with ENA study accession number: PRJEB37062 and ENA sample accession number: ERS12561749 for biotransformation under anaerobic condition. The drug concentrations were measured over 9 timepoints collected between 0 and 24 hours of incubation by liquid-chromatography-coupled mass spectrometry (LC–MS). The conditions noted are these: 2 µM.

The nature of data set [11]: The drug is tested on WLS-069 corresponding to human gut metagenome with ENA study accession number: PRJEB37062 and ENA sample accession number: ERS12561748 for biotransformation under anaerobic condition. The drug concentrations were measured over 9 timepoints collected between 0 and 24 hours of incubation by liquid-chromatography-coupled mass spectrometry (LC–MS). The conditions noted are these: 2 µM.

A short description of data set [12]: The drug is tested on WLS-007 corresponding to human gut metagenome with ENA study accession number: PRJEB37062 and ENA sample accession number: ERS12561742 for biotransformation under anaerobic condition. The drug concentrations were measured over 9 timepoints collected between 0 and 24 hours of incubation by liquid-chromatography-coupled mass spectrometry (LC–MS). Conditions: 2 µM.

For data set [13] the following is noted: human gut metagenome, 24 h, 2 µM.
The conditions of data set [14]: human gut metagenome, 24 h, 2 µM. This is another data set of the same source.
For data set [15] the following is noted: human gut metagenome, 24 h, 2 µM. This is another data set of the same source.
For data set [16] the following is noted: human gut metagenome, 24 h, 2 µM. This is another data set of the same source.
For data set [17] the following is noted: human gut metagenome, 24 h, 2 µM. The source holds these as a separate data set.
The conditions of data set [18]: human gut metagenome, 24 h, 2 µM. The source holds these as a separate data set.
The conditions of data set [19]: human gut metagenome, 24 h, 2 µM. This is another data set of the same source.
The conditions of data set [20]: human gut metagenome, 24 h, 2 µM. The source holds these as a separate data set.
Note: call rule not given here.

On to `CCOC(=O)[C@H](CCc1ccccc1)N[C@@H](C)C(=O)N1[C@H](C(=O)O)C[C@H]2CCCC[C@@H]21` [TRANDOLAPRIL], for which the “Bacterial Biotransformation” value is reported as “Compound NOT metabolized” in [1]; “Compound NOT metabolized” in [2]; “Compound metabolized” in data set [3]; “Compound NOT metabolized” in [4]; “Compound NOT metabolized” in data set [5]; “Compound metabolized” in data set [6]. Besides, the “Bacterial Biotransformation” value was “Compound metabolized” in data set [7]; “Compound NOT metabolized” in [8]; “Compound metabolized” in data set [9]; “Compound metabolized” in data set [10]; “Compound metabolized” in data set [11]; “Compound metabolized” in data set [12]. The “Bacterial Biotransformation” value in data set [13] is reported as “Compound NOT metabolized”; in data set [14] it was “Compound NOT metabolized”; in data set [15], “Compound metabolized”; in data set [16], “Compound metabolized”; in [17], “Compound metabolized”; in data set [18] it was “Compound metabolized”. For the same compound, the “Bacterial Biotransformation” value is “Compound NOT metabolized” in [19] and “Compound metabolized” in [20].
As to `CC(CN(C)C)CN1c2ccccc2CCc2ccccc21.O=C(O)/C=C\C(=O)O` (stereo not given) [TRIMIPRAMINE MALEATE], the “Bacterial Biotransformation” value in data set [1], in data set [2], in data set [3], in [4], in data set [5] and in [6] was “Compound NOT metabolized” in each case. The “Bacterial Biotransformation” value in [7] is listed as “Compound NOT metabolized”; in [8], “Compound NOT metabolized”; in data set [9], “Compound metabolized”; in data set [10] it was “Compound NOT metabolized”; in data set [11] it was “Compound metabolized”; in data set [12], “Compound metabolized”. In addition, the “Bacterial Biotransformation” value in data set [13] was “Compound NOT metabolized”; in [14] it was “Compound metabolized”; in data set [15], “Compound metabolized”; in data set [16] it was “Compound metabolized”; in data set [17] it was “Compound metabolized”; in data set [18], “Compound metabolized”. In addition, the figures for the “Bacterial Biotransformation” value in data set [19] and in [20] were “Compound NOT metabolized” and “Compound metabolized”, respectively.
On to `CC(=O)CC(c1ccccc1)c1c(O)c2ccccc2oc1=O` (stereo not given) [WARFARIN], for which the “Bacterial Biotransformation” value was “Compound NOT metabolized” in data set [1]; “Compound NOT metabolized” in data set [2]; “Compound metabolized” in data set [3]; “Compound NOT metabolized” in data set [4]; “Compound NOT metabolized” in data set [5]; “Compound NOT metabolized” in data set [6]. The “Bacterial Biotransformation” value in data set [7] is “Compound metabolized”; in [8] it was “Compound NOT metabolized”; in data set [9], “Compound metabolized”; in data set [10] it was “Compound NOT metabolized”; in [11], “Compound metabolized”; in data set [12] it was “Compound metabolized”. The “Bacterial Biotransformation” value is recorded as “Compound metabolized” in [13]; “Compound NOT metabolized” in data set [14]; “Compound metabolized” in [15]; “Compound metabolized” in [16]; “Compound metabolized” in [17]; “Compound metabolized” in data set [18]. Also, the “Bacterial Biotransformation” value was “Compound NOT metabolized” in data set [19] and “Compound metabolized” in data set [20].
With `Cc1ccc(-c2nc3ccc(C)cn3c2CC(=O)N(C)C)cc1` [ZOLPIDEM], the “Bacterial Biotransformation” value in data set [1], in [2], in data set [3], in data set [4], in data set [5] and in data set [6] was “Compound NOT metabolized” in each case. The “Bacterial Biotransformation” value in data set [7] was “Compound metabolized”; in data set [8], “Compound NOT metabolized”; in data set [9] it was “Compound metabolized”; in data set [10] it was “Compound NOT metabolized”; in [11] it was “Compound NOT metabolized”; in [12], “Compound NOT metabolized”. In addition, the “Bacterial Biotransformation” value is “Compound NOT metabolized” in data set [13]; “Compound NOT metabolized” in [14]; “Compound NOT metabolized” in [15]; “Compound metabolized” in data set [16]; “Compound NOT metabolized” in [17]; “Compound metabolized” in data set [18]. Further, the entries for the “Bacterial Biotransformation” value in data set [19] and in [20] were “Compound NOT metabolized” and “Compound metabolized”, respectively.
